In article PMC2151519 (The Journal of General Physiology, 2006):

Columns and labels:
Assay in all cases: whole-cell patch clamp, outward current, CHO-K1
Type in all cases: cell-based
[1] = target: TRPM7 (Mus musculus, UniProt Q923J1)
[2] = target: TRPM6/7 (Homo sapiens; Mus musculus, UniProt Q923J1+Q9BX84)
[3] = target: TRPM6 (Homo sapiens, UniProt Q9BX84)
Sequence of TRPM6 (Q9BX84 whole entry): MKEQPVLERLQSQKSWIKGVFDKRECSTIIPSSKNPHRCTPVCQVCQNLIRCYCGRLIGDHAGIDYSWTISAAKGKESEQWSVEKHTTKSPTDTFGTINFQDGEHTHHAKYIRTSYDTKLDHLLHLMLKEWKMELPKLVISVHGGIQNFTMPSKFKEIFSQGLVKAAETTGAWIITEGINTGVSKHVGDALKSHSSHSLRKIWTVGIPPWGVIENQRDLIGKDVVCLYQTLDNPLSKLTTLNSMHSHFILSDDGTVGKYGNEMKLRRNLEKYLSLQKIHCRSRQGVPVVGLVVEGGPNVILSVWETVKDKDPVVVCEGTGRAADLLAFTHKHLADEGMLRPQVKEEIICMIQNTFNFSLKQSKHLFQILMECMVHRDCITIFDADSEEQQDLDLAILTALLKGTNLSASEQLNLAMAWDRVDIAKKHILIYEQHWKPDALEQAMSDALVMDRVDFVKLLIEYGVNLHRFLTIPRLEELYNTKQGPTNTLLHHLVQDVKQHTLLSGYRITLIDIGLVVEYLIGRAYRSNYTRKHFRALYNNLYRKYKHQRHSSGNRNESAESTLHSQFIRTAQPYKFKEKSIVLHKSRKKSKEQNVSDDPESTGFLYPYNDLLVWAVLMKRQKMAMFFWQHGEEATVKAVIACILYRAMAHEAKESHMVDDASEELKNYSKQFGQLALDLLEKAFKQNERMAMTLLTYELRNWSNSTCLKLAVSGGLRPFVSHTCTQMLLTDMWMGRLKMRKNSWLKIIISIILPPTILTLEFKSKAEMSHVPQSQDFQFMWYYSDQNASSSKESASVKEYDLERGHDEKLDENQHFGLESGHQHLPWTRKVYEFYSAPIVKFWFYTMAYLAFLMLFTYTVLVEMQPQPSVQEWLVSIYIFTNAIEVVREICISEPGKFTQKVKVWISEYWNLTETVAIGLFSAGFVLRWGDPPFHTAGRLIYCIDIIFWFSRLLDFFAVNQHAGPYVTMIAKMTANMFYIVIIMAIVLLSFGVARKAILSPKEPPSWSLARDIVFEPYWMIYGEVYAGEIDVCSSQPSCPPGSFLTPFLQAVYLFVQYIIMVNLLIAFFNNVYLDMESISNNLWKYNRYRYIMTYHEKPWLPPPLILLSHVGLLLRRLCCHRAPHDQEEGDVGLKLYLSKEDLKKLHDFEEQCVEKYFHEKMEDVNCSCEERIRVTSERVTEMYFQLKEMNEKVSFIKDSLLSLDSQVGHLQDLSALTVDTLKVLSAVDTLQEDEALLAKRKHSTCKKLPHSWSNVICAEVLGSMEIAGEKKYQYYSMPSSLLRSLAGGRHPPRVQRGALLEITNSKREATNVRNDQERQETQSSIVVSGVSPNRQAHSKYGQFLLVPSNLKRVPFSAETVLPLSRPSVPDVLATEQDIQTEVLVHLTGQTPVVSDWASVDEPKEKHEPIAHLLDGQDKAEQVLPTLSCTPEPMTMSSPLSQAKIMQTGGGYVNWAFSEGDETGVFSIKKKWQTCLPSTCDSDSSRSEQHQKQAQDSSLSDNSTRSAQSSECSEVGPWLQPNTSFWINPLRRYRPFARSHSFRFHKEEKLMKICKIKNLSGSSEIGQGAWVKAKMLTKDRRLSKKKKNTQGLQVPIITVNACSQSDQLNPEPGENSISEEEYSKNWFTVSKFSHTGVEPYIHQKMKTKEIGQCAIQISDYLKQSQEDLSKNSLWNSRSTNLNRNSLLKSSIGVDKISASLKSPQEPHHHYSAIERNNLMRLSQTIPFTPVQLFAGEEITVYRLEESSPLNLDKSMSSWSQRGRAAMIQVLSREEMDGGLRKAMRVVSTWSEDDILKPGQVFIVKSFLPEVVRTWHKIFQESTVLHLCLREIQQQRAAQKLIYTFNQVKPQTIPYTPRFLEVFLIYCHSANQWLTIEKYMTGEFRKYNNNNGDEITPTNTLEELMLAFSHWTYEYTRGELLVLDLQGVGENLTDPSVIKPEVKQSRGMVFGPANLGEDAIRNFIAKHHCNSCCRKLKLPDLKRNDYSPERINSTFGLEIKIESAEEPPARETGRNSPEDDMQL

Sequence of TRPM6/7 (Q9BX84 whole entry): as above
Sequence of TRPM6/7 (Q923J1 whole entry): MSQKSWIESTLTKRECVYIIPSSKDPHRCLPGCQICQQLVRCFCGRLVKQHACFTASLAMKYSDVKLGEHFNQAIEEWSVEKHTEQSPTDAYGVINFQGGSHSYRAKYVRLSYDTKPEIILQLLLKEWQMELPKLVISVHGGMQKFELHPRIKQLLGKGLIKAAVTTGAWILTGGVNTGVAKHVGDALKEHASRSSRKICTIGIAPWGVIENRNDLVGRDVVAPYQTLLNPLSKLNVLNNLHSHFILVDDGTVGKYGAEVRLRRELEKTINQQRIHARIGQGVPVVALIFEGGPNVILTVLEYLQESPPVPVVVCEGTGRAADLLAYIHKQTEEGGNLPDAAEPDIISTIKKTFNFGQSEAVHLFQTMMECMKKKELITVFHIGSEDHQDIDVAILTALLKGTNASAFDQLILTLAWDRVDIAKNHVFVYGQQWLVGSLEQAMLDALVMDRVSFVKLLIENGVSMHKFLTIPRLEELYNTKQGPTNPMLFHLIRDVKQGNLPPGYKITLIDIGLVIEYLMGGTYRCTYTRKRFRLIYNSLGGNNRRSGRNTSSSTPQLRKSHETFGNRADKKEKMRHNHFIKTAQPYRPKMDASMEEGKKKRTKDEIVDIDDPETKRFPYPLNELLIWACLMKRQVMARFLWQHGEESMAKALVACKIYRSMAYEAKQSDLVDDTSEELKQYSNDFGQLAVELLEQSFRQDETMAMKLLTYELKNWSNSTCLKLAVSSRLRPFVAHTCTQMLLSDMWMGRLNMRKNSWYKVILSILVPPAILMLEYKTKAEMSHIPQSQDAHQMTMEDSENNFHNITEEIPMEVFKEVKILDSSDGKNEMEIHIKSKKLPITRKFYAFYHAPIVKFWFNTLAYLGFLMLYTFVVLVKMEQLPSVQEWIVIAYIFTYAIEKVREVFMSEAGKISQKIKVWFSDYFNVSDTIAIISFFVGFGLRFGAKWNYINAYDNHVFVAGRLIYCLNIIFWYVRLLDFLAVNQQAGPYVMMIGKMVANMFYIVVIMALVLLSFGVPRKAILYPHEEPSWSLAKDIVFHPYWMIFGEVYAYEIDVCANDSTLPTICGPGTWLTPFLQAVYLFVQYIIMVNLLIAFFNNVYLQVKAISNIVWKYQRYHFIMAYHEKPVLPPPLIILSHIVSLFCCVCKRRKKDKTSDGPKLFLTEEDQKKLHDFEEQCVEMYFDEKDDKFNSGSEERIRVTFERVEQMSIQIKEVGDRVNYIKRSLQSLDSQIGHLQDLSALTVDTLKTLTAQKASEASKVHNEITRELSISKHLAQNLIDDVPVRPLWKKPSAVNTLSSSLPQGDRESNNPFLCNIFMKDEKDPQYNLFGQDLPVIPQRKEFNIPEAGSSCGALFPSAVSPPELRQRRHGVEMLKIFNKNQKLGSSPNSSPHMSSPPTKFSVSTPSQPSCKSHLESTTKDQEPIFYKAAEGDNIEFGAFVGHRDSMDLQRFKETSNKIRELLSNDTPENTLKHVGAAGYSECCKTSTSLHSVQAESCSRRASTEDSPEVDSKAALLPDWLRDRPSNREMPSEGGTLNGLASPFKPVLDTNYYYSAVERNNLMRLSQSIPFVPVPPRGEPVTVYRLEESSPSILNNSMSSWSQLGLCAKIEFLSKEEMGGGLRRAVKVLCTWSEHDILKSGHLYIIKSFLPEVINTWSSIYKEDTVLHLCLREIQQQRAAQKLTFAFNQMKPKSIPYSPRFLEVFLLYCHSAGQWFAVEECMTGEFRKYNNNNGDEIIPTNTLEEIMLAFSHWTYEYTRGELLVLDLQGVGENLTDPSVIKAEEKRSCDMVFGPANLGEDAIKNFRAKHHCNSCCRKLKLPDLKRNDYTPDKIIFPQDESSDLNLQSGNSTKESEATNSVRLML
Sequence of TRPM7 (Q923J1 whole entry): as above

- IC50 [1]: 178 ± 14 µM
- EC50 [2]: 1600 ± 100 µM
- EC50 [3]: 205 ± 10 µM
SMILES: NCCOB(c1ccccc1)c1ccccc1 [2-APB]
